Measured values from patent US20250281449A1, “NITROGEN-CONTAINING ANALOGS OF SALINOMYCIN FOR USE IN MULTIPLE MYELOMA (MM)” (Centre National de la Recherche Scientifique, priority 2021, published 2025).

Tests used:
XG-7 cells = experiment: Drug combination concentration matrix, viability by ATP quantification, Bliss synergy; assay type: cell-based, human
Method: (§1) XG-7 or XG2 WT (XG2 neg) or XG2 melphalan resistant (XG2 Melph R) cell lines were respectively treated with increasing concentrations of ironomycin combined with melphalan during 96 h and cell viability was tested by ATP quantification to obtain the viability matrix. The synergy matrix was calculated as described in Material and Methods.
XG-7cells were treated with increasing concentrations of ironomycin combined with lenalidomide during 96 h and cell viability was tested by ATP quantification to obtain the viability matrix. The synergy matrix was calculated as described in Material and Methods.
XG-7cells were treated with increasing concentrations of ironomycin combined with pomalidomide during 96 h and cell viability was tested by ATP quantification to obtain the viability matrix. The synergy matrix was calculated as described in Material and Methods.
XG-7cells were treated with increasing concentrations of ironomycin combined with carfilzomib during 96 h and cell viability was tested by ATP quantification to obtain the viability matrix. The synergy matrix was calculated as described in Material and Methods.
XG-7cells were treated with increasing concentrations of ironomycin combined with AZD-5991 during 96 h and cell viability was tested by ATP quantification to obtain the viability matrix. The synergy matrix was calculated as described in Material and Methods
(§2) HMCL cell lines were cultured for 4 days in 96-well flat-bottom microtiter plates in RPMI 1640 medium or DMEM medium, 10% or 20% FCS (control medium) in the presence of various compounds. The number of viable cells in culture was determined using the Cell Titer-Glo Luminescent Cell Viability Assay from Promega, Madison, WI, USA using a Centro LB 960 luminometer (Berthold Technologies, Bad Wildbad, Germany).
(§3) The interaction between the drugs tested in vitro was investigated with a concentration matrix test, in which increasing concentration of each single drug were assessed with all possible combinations of the other drugs. For each combination, the percentage of expected growing cells in the case of effect independence was calculated according to the Bliss equation (Combes et al., 2019): […]
where fuC is the expected fraction of cells unaffected by the drug combination in the case of effect independence, and fuA and fuB are the fractions of cells unaffected by treatment A and B, respectively. The difference between the fraction of living cells in the cytotoxicity test and the fuC value was considered as an estimation of the interaction effect, with […]. Synergy matrix was built with the R package “SynergyFinder”.

[1] = test system: XG-1, XG-7 and OPM-2 cells; experiment: Cell cycle analysis (BrdU incorporation/DAPI, flow cytometry); assay type: cell-based, human; conditions: IC50 Ironomycin, 72 hours
Method: XG-1, XG-7 and OPM-2 cells were incubated with vehicle or with IC50 Ironomycin for 72 hours. Cell cycle was analyzed using flow cytometry, S phase was stained by an anti-BrdU antibody after BrdU incorporation and DNA content was strained by 4′,6-diamidino-2-phénylindole (DAPI). Histograms represent the mean percentage and SD of each cell cycle phase of three independent experiments. * and ** indicate a significant difference of P<0.05 and P<0.01, respectively with paired student t-test.
The cell cycle progression was studied by flow cytometry using the Apoptosis, DNA Damage, and Cell Proliferation Kit (562253, Becton Dickinson). Briefly, cells were labeled with bromodeoxyuridine (BrdU), an analog of the DNA precursor thymidine that can be incorporated into newly synthesized DNA and detected with an antibody against BrdU to measure cell proliferation. After this labeling, the cells were fixed, permeabilized and treated with DNase to expose the BrdU epitopes. Following this treatment, cells were simultaneously stained with fluorochrome-labeled anti-BrdU, anti-cleaved Poly A DP-ribose polymerase 1 (PARP), anti-H2AX phosphorylated at serine 139. They were also stained with DAPI to determine DNA content. Finally, cells were resuspended in staining buffer and analyzed by flow cytometry (Fortessa, Becton Dickinson).

XG7 and OPM-2 cells = experiment: Cell death with pan caspase inhibitor Q-VD-Oph pretreatment, AnnexinV-PE; assay type: cell-based, human; conditions: 20 μM Q-VD-Oph pretreatment, 48H
Method: XG7 and OPM-2 cells were pretreated at least 30 minutes by 20 μM of Q-VD-Oph as pan caspase inhibitor before treatment. Cells were treated as indicated during 48H, effect of Ironomycin on cell death induction was analyzed using AnnexinV-PE staining by flow cytometry (B). N=4.
Annexin V-PE staining for apoptosis analysis was performed using the “PE Annexin V Apoptosis Detection Kit I” (559763, Becton Dickinson).

[2] = test system: pan-caspase, caspase3/7 and caspase 9 activity in OPM-2 cells; experiment: Caspase activity by luminometry; assay type: cell-based, human; conditions: OPM-2, 48H
Method: OPM-2 cells were treated as indicated during 48H and pan-caspase, caspase3/7 and caspase 9 activity were measured by luminometry. 4-OH-cyclophosphamide (80 μM) was used as a positive control (C).

[3] = test system: XG2 melphalan resistant (XG2 Melph R) cell line; experiment: Drug combination concentration matrix, viability by ATP quantification, Bliss synergy; assay type: cell-based, human; conditions: melphalan resistant cell line XG2 MeIR, 96 h
Method: as §1, §2, §3
where fuC is the expected fraction of cells unaffected by the drug combination in the case of effect independence, and fuA and fuB are the fractions of cells unaffected by treatment A and B, respectively. […]

XG2 = experiment: Cell viability assay (Cell Titer-Glo), HMCL; assay type: cell-based; conditions: Homo sapiens, 96H
Method: (§4) The panel of 17 HMCL cell lines were incubated with increasing concentrations of Ironomycin (A), AM23 (B) or vehicle for 96H.
as §2
(§5) This test is based on quantitation of the intracellular ATP present, which signals the presence of metabolically active cells. Data are expressed as the mean percentage of six replicates, normalized to the untreated control.

XG24 = experiment: Cell viability assay (Cell Titer-Glo), HMCL; assay type: cell-based; conditions: Homo sapiens; XG24 HMCL, 96H; read-out: IC50
Method: as §4, §2, §5

XG-1 = experiment: Cell viability assay (Cell Titer-Glo), HMCL; assay type: cell-based; conditions: Homo sapiens; XG-1 HMCL, 96H; read-out: IC50
Method: as §4, §2, §5

XG-7 = experiment: Cell viability assay (Cell Titer-Glo), HMCL; assay type: cell-based; conditions: Homo sapiens; XG-7 HMCL, 96H; read-out: IC50
Method: as §4, §2, §5

JJN3 = experiment: Cell viability assay (Cell Titer-Glo), HMCL; assay type: cell-based; conditions: Homo sapiens, JJN-3, 96H
Method: as §4, §2, §5

RPMI = experiment: Cell viability assay (Cell Titer-Glo), HMCL; assay type: cell-based; conditions: Homo sapiens, 96H
Method: as §4, §2, §5

XG-19 = experiment: Cell viability assay (Cell Titer-Glo), HMCL; assay type: cell-based; conditions: Homo sapiens; XG-19 HMCL, 96H
Method: as §4, §2, §5

XG6 = experiment: Cell viability assay (Cell Titer-Glo), HMCL; assay type: cell-based; conditions: Homo sapiens; XG6 HMCL, 96H; read-out: IC50
Method: as §4, §2, §5

[4] = test system: CD34+ cells (normal hematopoietic progenitors); assay type: cell-based, human
Method: Hematopoietic progenitor colony-forming units assay were performed with CD34+ cells from apheresis of 5 donors. Cells were cultured in hydroxyl-methyl-cellulose medium with or without conventional chemotherapy or Ironomycin (A) or AM-23 (B). CFU-C, CFU-E/BFU-E and CFU-GM, -G, -M were counted after 14 days culture. N=5.

Structure (SMILES): C#CCN[C@@H]1C=C[C@]2(O[C@H]([C@@H](CC)C(=O)[C@@H](C)[C@@H](O)[C@H](C)[C@@H]3O[C@@H]([C@@H](CC)C(=O)O)CC[C@@H]3C)[C@@H](C)C[C@H]2C)O[C@@]12CC[C@@](C)([C@H]1CC[C@](O)(CC)[C@H](C)O1)O2 [Ironomycin]
- interaction effect, combined with AZD5991 (XG-7 cells; XG-7, 96 h): additive effect
- interaction effect, combined with Lenalidomide (XG-7 cells; XG-7, 96 h): synergy
- interaction effect, combined with Pomalidomide (XG-7 cells; XG-7, 96 h): synergy
- interaction effect, combined with carfilzomib (XG-7 cells; XG-7, 96 h): additive effect
- interaction effect, combined with melphalan (XG-7 cells; XG-7 or XG2 WT, 96 h): synergistic effect
- proliferation of MM cells (cell cycle) [1]: inhibition of proliferation of MM cells
- inhibition of induced apoptosis by pan caspase inhibitor Q-VD-Oph (XG7 and OPM-2 cells): partially inhibited
- caspase activation [2]: activation of caspases 3/7 and 9
- interaction effect, combined with melphalan [3]: remains synergistic
- IC50 (XG2): 0.024 µM
- IC50 (XG24): 0.019 µM
- IC50 (XG-1): 0.239 µM
- IC50 (XG-7): 0.052 µM
- IC50 (JJN3): 0.084 µM
- IC50 (RPMI): 0.073 µM
- IC50 (XG-19): 0.027 µM
- IC50 (XG6): 0.026 µM
- toxicity on normal hematopoietic progenitors [4]: low toxicity
